Source: patent US12391679B2, “Benzamide-substituted bicyclic imidazo- and pyrazolo-fused -pyridine, -pyrimide, and -pyridazine compounds for treatment of inflammatory diseases” (ONCO3R Therapeutics BV, priority 2019, dated 2025)

How the values were obtained:
SIK1 [1] = biological target: T1, SIK1 (Homo sapiens, UniProt P57059); test: ADP-Glo kinase assay, SIK1; type: biochemical
T1 construct: purchased Carna Biosciences 02-131
In short: (§1)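 Luminescent ADP-formation read-out: enzyme–substrate mix + ATP, 120 min RT; ATP depletion 40 min RT; ADP→ATP conversion with luciferase/luciferin 30 min RT. Controls: 1% DMSO (negative), 10 μM staurosporine final (positive).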

SIK1 [2] = biological target: T1, SIK1; test: 33P radioactive kinase assay, SIK1; type: biochemical
In short: (§2)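 SIK1, SIK2 or SIK3 phosphorylation of AMARA peptide with [33P]-γ-ATP plus unlabeled ATP. 10-point 1/5 dilution series, 1% DMSO final; reactions stopped with phosphoric acid, filter-harvested and scintillation-counted. Percentage inhibition and average IC50 derived from dose-response curves.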

SIK2 [3] = biological target: T2, SIK2 (Homo sapiens, UniProt Q9H0K1); test: ADP-Glo kinase assay, SIK2; type: biochemical
T2 construct: purchased ThermoFisher Scientific PV4792
T2 sequence (Q9H0K1 whole entry): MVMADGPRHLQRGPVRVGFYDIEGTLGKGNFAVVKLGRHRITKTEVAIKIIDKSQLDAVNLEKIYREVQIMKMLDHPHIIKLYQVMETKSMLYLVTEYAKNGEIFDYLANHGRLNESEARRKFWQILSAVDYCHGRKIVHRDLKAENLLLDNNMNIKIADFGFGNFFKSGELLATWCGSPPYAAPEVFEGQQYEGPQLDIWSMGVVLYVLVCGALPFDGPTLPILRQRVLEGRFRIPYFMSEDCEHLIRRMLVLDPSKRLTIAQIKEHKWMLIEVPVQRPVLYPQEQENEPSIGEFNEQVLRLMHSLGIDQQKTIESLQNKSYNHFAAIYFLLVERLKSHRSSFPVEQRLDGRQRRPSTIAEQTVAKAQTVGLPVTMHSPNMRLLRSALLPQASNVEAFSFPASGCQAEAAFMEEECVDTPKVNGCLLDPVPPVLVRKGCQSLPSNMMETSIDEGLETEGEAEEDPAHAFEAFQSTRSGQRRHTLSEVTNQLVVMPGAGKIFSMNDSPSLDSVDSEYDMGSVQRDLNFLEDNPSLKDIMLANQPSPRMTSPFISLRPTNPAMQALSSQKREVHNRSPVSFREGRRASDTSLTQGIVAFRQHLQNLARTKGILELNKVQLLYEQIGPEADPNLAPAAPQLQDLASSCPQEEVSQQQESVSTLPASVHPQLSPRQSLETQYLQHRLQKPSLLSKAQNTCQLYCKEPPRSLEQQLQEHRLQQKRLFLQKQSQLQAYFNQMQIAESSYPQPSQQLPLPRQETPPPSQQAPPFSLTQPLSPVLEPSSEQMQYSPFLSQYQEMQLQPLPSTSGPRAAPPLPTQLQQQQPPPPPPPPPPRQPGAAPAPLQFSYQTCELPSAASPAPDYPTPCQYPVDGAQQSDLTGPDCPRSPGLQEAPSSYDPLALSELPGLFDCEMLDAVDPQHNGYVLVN
In short: as §1

SIK2 [4] = biological target: T2, SIK2; test: 33P radioactive kinase assay, SIK2; type: biochemical; also: AMARA 5 µM, 10 µM ATP
In short: as §2

SIK3 [5] = biological target: T3, SIK3 (Homo sapiens, UniProt Q9Y2K2); test: 33P radioactive kinase assay, SIK3; type: biochemical; details: 33P radioactive assay; AMARA 7 μM; 15 μM ATP; 80 min; average IC50
T3 construct: purchased SignalChem S12-11G-100
T3 sequence (Q9Y2K2 59-365 limits assumed): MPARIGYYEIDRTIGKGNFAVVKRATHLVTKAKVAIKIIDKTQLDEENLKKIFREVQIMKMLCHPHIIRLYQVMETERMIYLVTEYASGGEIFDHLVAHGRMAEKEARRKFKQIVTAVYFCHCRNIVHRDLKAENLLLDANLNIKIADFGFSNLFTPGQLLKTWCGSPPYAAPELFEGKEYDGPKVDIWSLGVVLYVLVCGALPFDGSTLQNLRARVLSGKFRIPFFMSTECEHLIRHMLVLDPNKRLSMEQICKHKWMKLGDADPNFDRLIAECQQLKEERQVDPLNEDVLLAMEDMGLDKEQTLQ
In short: as §2

[6] = tested on: LPS-induced TNFα in monocyte-derived macrophages; test: MdM assay: LPS-triggered TNFα (ELISA); type: cell-based, human; details: Macrophage; human MdM; LPS 200 ng/mL; supernatant after 20 h; inhibition of TNFα; read-out: TNFα EC50
Description: This assay evaluates illustrative compounds of the invention for their inhibition of LPS-induced TNFα and LPS triggered IL-10 secretion in monocyte-derived macrophages. PBMCs are isolated from human blood samples (buffycoats). The buffy coat is aseptically transferred into a 50 mL Falcon tube, and diluted 1/2 in PBS. Falcon tubes are filled with 20 mL LymphoprepTM, on top of which 25 mL of the buffy coat is carefully added, tubes are centrifuged for 35 min at 400 g in temperature controlled centrifuge, without brake, at 25° C. PBMCs are aspirated from the white interface layer between sample and LymphoprepTM. PBMCs are washed five times in PBS. […] PBMCs are centrifuged at 300×g for 10 min and resuspended at a density of 1.0*10^7 cells/80 μL Miltenyi buffer (PBS, pH 7.4, 1% FBS, 2 mM EDTA). Starting from this point of the protocol all steps are performed on ice. 20 μL of CD14+ micro-beads are added per 1.0*10^7 cells, the tube is mixed and incubated for 15 min in the fridge at 4° C. Cell suspension volume is adjusted to total volume of 100 mL using Miltenyi buffer, mixed gently and subsequently centrifuged for 10 min at 300×g. Supernatant is discarded and cell pellet is resuspended in 12 mL of Miltenyi buffer. Four LS columns are placed in the MACS Separator (magnet) from Miltenyi Biotec, and are prewet by rinsing with 3 mL of MACS buffer per column. Three mL of cell suspension is added onto the column (max 1*10^8 of labelled cells/column), and columns are subsequently washed 3 times with 3 mL of Miltenyi buffer. The columns are removed from the magnets, and 5 mL of Miltenyi buffer are added to the column to flush out the CD14+ fraction by pushing the plunger into the column. The flushed fractions are collected in a fresh 50 mL Falcon and volume is adjusted to 30 mL using Miltenyi buffer, cells are centrifuged for 10 min at 300×g. The obtained cell pellet is resuspended in 10 mL RPMI w/o FBS, and cell density is determined using a hematologic analyser (Sysmex XS-500i). […] On day 10, MdMs are triggered and compound is added. A compound dilution plate is made in 100% DMSO by 3-fold dilution of 10 mM stock solution. An intermediate dilution plate (10× final concentration) is made by diluting the compound dilution plate […] in RPMI medium. Medium is carefully removed from cell plates using multichannel pipette, and replaced by 80 μL fresh medium. 10 μL of the 10× final concentration compound is added to the cells and incubated for 1 hour at 37° C. before addition of trigger. No trigger conditions/trigger conditions are spiked with equal final DMSO concentrations of 0.2% DMSO. 10 μL of 10×LPS (final conc. 200 ng/mL) solution are added to all wells except for the 'no trigger wells' where 10 μL medium is added. Supernatant is collected after 2 h (IL-10 determination) and after 20 h (TNFα determination) of LPS triggering. […] The plate is then washed once with PBST (PBS+0.05% Tween20) and once with PBS followed by the addition of 100 μL of blocking buffer (1% Bovine Serum Albumin (BSA) -5% Sucrose) and plates are sealed and incubated for at least 4 h at RT. After washing the plate once with PBST and once with PBS, 40 μL of standard or sample are added (TNFα standard curve is prepared using a 1/2 serial dilution starting from 16000 pg/mL; dilutions are made in dilution buffer (PBS+1% BSA)). Plates are washed twice with PBST, and once with PBS, after which 35 μL of the detection antibody is added (final concentration 0.25 μg/mL diluted in dilution buffer) and plates are incubated for at least 2 h at RT. Plates are washed twice with PBST, and once with PBS, where after 35 μL of Strep-HRP conjugate (0.5 μg/mL final concentration diluted in dilution buffer) is added. […] Plates are washed twice with PBST, and once with PBS. Thereafter, 50 μL of luminol substrate is added to each well (prepared according to manufacturer's instructions), and incubated for 5 min at RT protected from light.

SIK3 [7] = biological target: T3, SIK3; test: ADP-Glo kinase assay, SIK3; type: biochemical
In short: as §1

T1 sequence (P57059 whole entry): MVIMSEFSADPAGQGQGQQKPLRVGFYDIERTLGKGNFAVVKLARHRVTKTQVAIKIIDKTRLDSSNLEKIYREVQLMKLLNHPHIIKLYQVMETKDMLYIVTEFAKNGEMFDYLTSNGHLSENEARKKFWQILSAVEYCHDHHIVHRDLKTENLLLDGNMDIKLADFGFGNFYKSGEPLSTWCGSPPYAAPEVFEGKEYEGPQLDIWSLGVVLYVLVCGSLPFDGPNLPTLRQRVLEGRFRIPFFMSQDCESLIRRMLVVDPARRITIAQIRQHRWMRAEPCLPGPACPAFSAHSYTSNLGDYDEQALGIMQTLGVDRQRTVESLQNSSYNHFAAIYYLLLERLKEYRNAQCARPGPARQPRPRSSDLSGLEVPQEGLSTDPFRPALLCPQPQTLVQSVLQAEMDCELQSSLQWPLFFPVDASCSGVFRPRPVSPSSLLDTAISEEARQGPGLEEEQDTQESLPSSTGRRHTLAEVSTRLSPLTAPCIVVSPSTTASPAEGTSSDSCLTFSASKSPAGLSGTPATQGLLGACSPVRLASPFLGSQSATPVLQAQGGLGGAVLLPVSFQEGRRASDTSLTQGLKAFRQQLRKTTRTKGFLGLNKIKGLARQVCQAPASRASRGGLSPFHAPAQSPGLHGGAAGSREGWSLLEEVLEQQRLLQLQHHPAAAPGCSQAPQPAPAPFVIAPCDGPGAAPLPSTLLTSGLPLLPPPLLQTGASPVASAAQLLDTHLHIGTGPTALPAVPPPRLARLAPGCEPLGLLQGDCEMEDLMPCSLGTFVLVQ

`COc1cc(-c2cnc3cc(C(C)C#N)ccn23)cc(OC(F)F)c1C(=O)NC1CC1` (stereo not shown) [Cpd 26, 4-[7-(1-cyanoethyl)imidazo[1,2-a]pyridin-3-yl]-N-cyclopropyl-2-(difluoromethoxy)-6-methoxy-benzamide] was tested, and the IC50 (SIK1 [1]) was over 500 nM, the IC50 (SIK1 [2]) was over 500 nM and the IC50 (SIK2 [3]) was 100 to 500 nM. For the same compound, the IC50 (SIK2 [4]) was 100 to 500 nM, the IC50 (SIK3 [5]) was 10 to 100 nM and the EC50 [6] was 100 to 1000 nM. It also gave an IC50 (SIK3 [7]) of 0.01 to 10 nM.
